Consider one compound from patent publication US9782522B2, “Compositions and methods for treating and preventing neointimal stenosis” (Yale University, priority 2011, dated 2017).

The test system of one data set is HUAEC. Briefly: qRT-PCR mRNA expression of TGFβ signaling and Endo-MT markers in endothelial cells. In kind it is cell-based, human. The note with it: FRS2 knockdown EC; 10 μM. The text has this:
Human 293T T17 cells (ATCC CRL-11268) were maintained in Dulbecco's modified Eagle's medium (Gibco) with 10% fetal bovine serum (Invitrogen) and penicillinstreptomycin (Gibco). Primary human mammary epithelial cells (HuMEC, Invitrogen), were maintained in HuMEC basal serum free medium with HuMEC supplement (Invitrogen 12754-016) and bovine pituitary extract (Invitrogen 13028-014). Human foreskin cells (ATCC CRL-1079Sk) were maintained in Minimum Essential Medium (ATCC) with 10% fetal bovine serum (Hyclone), β-mercaptoethanol (Sigma), and penicillin-streptomycin (Gibco). Primary human atrial cells (passage 3-5; gift from Y. Qyang, Yale University School of Medicine) were maintained in Dulbecco's modified Eagle's medium (Gibco) with 10% fetal bovine serum (Invitrogen), L-glutamine (Gibco), Sodium pyruvate (Gibco), Non-essential amino acid (Gibco), and penicillin-streptomycin (Gibco). HUAEC (human umbilical artery endothelial cells, passage 5-10, Lonza) were cultured in EBM-2 supplemented with EGM-2-MV bullet kit (Lonza). HUVEC (human umbilical vein endothelial cells, passage 3-7, Yale Vascular Biology and Therapeutics) were cultured in M199 with ECGS, supplemented with 20% FBS (Sigma), L-glutamine (Gibco), and penicillin-streptomycin (Gibco). Culture vessels were coated with 0.1% gelatin (Sigma) for 30 min at 37° C. immediately prior to cell seeding. Primary mouse endothelial cells were isolated from the heart using rat anti-mouse CD31 antibody and Dynabeads (Invitrogen) as previously described (Partovian C, et al. Mol Cell. 32(1):140 (2008)).
RNA was isolated using RNeasy® plus Mini Kit (Qiagen) and converted to cDNA using iScript™ cDNA synthesis kit (Bio-Rad). Quantitative real-time PCR (qRT-PCR) was performed using Bio-Rad […] (Bio-Rad) by mixing equal amount of eDNAs, iQ™ SYBR® Green Supermix (Bio-Rad) and gene specific primers. All reactions were done in a 25 μl reaction volume in duplicate. Data were normalized to endogenous β-actin. Values are expressed as fold change in comparison to control. Mouse TGFβ gene expression was quantified via qRT-PCR with TaqMan® Gene Expression Assays (Mm00441726_m1; Applied Biosystems) and HPRT (Mm00441258_1; Applied Biosystems) as endogenous control followed the manufacturer's recommendation. Quantitative PCR analysis of 84 TGFβ and epithelial to mesenchymal transition (EMT) related genes were performed using Human TGFβ BMP signaling pathway (PAHS-035D, QIAGEN) and Human Epithelial to Mesenchymal Transition (PAHS-090D, QIAGEN) RT^2 Profiler™ PCR Arrays following the manufacturer's protocol. RT^2 Profiler™ PCR arrays were run on a Bio-Rad CFX96 machine (Bio-Rad). Duplicate arrays were run per condition for control and FRS2 knockdown human umbilical arterial endothelial cells (HUAEC). Data analysis was performed using the manufacturer's integrated web-based software package for the PCR Array System using cycle threshold (Ct)-based fold-change calculations.
Recombinant human FGF2 (R&D) and TGFβ1 (Peprotech) were reconstituted in 0.1% BSA/PBS. U0126 (Sigma), a MEK inhibitor, was reconstituted in DMSO and used at a final concentration of 10 μM. SB431542 (Sigma), a TGFBR1 kinase inhibitor, was reconstituted in DMSO and used at a final concentration of 10 μM in cell culture. Actinomycin D (Sigma), a DNA transcription suppressor, was reconstituted in acetone and used at a final concentration of 10 μg/ml in cell culture. […]

The nature of data set [1]: SB-431542 release from microparticles and scaffolds. The format is physicochemical. As to the method:
Total encapsulation was approximated as the amount of SB-431542 released over a 14-day period. Percent encapsulation efficiency was calculated as total encapsulation divided by maximum theoretical encapsulation. 5 mg of avidin-coated PLGA microparticles containing SB-431542, PGA-P(CL/LA) trimmed scaffolds and treated with pLLB and SB-431542-eluting microparticles as above, and SB-431542-eluting PGA-P(CL/LA) trimmed scaffolds were incubated with PBS in triplicate on a rotary shaker at 37° C. Samples were removed at specific time points and centrifuged at 13200 RPM for 10 minutes. 300 μl of supernatant was drawn and replaced with 300 μl PBS. Concentration of SB-431542 in supernatant diluted with 600 μl PBS was determined by spectrophotometry at 320 nm.

A further data set has as its system 3T3 human fibroblasts. Briefly: Bioactivity of encapsulated SB-431542 (phosphorylated SMAD-2 after TGF-β1). The format is cell-based. On the procedure: SB-431542 was released into 1 ml PBS from 10 mg avidin-coated PLGA microparticles and one untrimmed SB-431542-eluting PGA-P(CL/LA) scaffold in 2 ml microcentrifuge tubes at 37° C. At 48 hours, samples were centrifuged at 13200 RPM for 10 minutes, supernatants were collected and analyzed by spectrophotometry at 320 nm. SB-431542 concentrations were adjusted to 10 μM by dilution with PBS. 3T3 human fibroblasts were plated at 500,000/well and stimulated at confluence with 700 ul 10 μM SB-431542 in PBS eluted from particles or scaffolds, a stock solution of 10 or 1 μM SB-431542 containing <1% DMSO, or PBS. After 30 minutes at 37° C., cells were washed and stimulated with 200 ul 2 ng/ml recombinant human TGF-β1 (BD Biosciences) for 1 hour at 37 C. Cells were lysed and protein samples were separated by gel electrophoresis with a 12% polyacrylamide gel and probed with primary antibody to phosphorylated SMAD-2 (ser426/ser428, Cell Signaling Technology) and secondary goat anti-rabbit IgG (Cell Signaling Technology). The gel was stripped and reprobed with anti-SMAD2/3 as a loading control.

Data set [2] has as its system constitutively active ALK-4, ALK-5, and ALK-7. Also noted: dose or concentration left out as unconfirmed. As to conditions: transfected NIH 3T3 cells; cited from earlier work.
The mark [3] stands for this setting: inhibitor added to the solvent used to make the grafts.

Consider `NC(=O)c1ccc(-c2nc(-c3ccc4c(c3)OCO4)c(-c3ccccn3)[nH]2)cc1` [SB431542, 4-[4-(1,3-Benzodioxol-5-yl)-5-(2-pyridinyl)-1H-imidazol-2-yl]-benzamide], for which, in the data set on HUAEC, the SM-calponin expression entry is reported as “significantly decreased”, the fibronectin expression entry is “significantly decreased” and the vimentin expression entry is reported as “significantly decreased”. Further, the “Release of the drug” value in data set [1] (PLGA microparticle system tethered to TEVG scaffold, full 2-week time course) is “steady release”. Moreover, the Release profile entry in data set [1] (setting [3]) is given as “favorable release profile”. Besides, the “Biologic activity of the released drug” value in the data set with 3T3 human fibroblasts (setting [3]) is on record as “continued biologic activity”. For the same compound, the “Biologic activity of the released drug” value in the data set with 3T3 human fibroblasts (microparticle system) is given as “maintains its biologic activity”. Also, in data set [2], the “Phosphorylation of Smad2 by constitutively active ALK-4, ALK-5, and ALK-7” value is “completely abolished”.
